{"source": "patent EP2168584A1", "about": "“PHARMACEUTICAL COMPOSITION COMPRISING THE COMBINATION OF A TRIAZOLOBENZODIAZEPINE AND A SELECTIVE SEROTONIN REUPTAKE INHIBITOR” (World Trade Import-Export, WTIE A.G., priority 2007, dated 2009)", "origin": "cited, not measured here", "key": {"[1]": {"conditions": "relative to the therapeutic activity of Alprazolam"}}, "note": "Read-outs that look alike come from different tables or passages of the source.", "data": [{"smiles": "Cc1nnc2n1-c1ccc(Cl)cc1C(c1ccccc1)=NC2", "note": "[Alprazolam]", "values": [{"measurement": "half-life of plasma elimination, range", "setting": "human, in vivo", "result": "6.3 to 26.9", "unit": "h"}, {"measurement": "Maximum plasma concentrations are obtained (time after administration)", "setting": "human, in vivo, po", "result": "1 to 2", "unit": "h"}, {"measurement": "bound to human serum proteins", "setting": "human serum proteins", "result": 80, "unit": "%"}]}, {"smiles": "CNCCC(Oc1ccc(C(F)(F)F)cc1)c1ccccc1", "note": "(stereo not drawn) [Fluoxetine]", "values": [{"measurement": "degree of fixation of plasma proteins", "setting": "plasma proteins", "result": "especially high"}]}, {"smiles": "Fc1ccc([C@@H]2CCNC[C@H]2COc2ccc3c(c2)OCO3)cc1", "note": "[Paroxetine]", "values": [{"measurement": "elimination half-life", "setting": "elderly and severe hepatic failure patients", "result": "≤ 36", "unit": "h"}, {"measurement": "oral bioavailability", "setting": "first-step metabolism", "result": 50, "unit": "%"}, {"measurement": "elimination half-life", "setting": "human, in vivo", "result": 21, "unit": "h"}, {"measurement": "dose metabolized", "setting": "mainly in the liver, inactive metabolites", "result": "More than 95%"}, {"measurement": "degree of fixation of plasma proteins", "setting": "plasma proteins", "result": "especially high"}, {"measurement": "binds to plasma proteins", "setting": "plasma proteins; plasma", "result": 95, "unit": "%"}]}, {"smiles": "CN[C@H]1CC[C@@H](c2ccc(Cl)c(Cl)c2)c2ccccc21", "note": "[Sertraline]", "values": [{"measurement": "degree of fixation of plasma proteins", "setting": "plasma proteins", "result": "especially high"}]}, {"smiles": "OCc1nnc2n1-c1ccc(Cl)cc1C(c1ccccc1)=NC2", "note": "[alpha-hydroxy-alprazolam]", "values": [{"measurement": "biological activity of metabolite", "setting": "[1]", "result": "approximately to half of the therapeutic activity of Alprazolam"}]}]}
